From ChEMBL document CHEMBL4028841, “The identification of novel acid isostere based inhibitors of the VPS10P family sorting receptor Sortilin” (Bioorg Med Chem Lett, 2017)
Active and inactive are the calls of the source. The calls are words filed in the database; no cut-off is given here.

Tests used:
Sortilin = biological target: T1, Sortilin (Homo sapiens, UniProt Q99523); assay: Displacement of [3H]-neurotensin from human His6-tagged sortilin pretreated for 30 mins followed by [3H]-neurotensin addition after 6 hrs measured for 360 secs by SPA
T1 sequence (Q99523 whole entry): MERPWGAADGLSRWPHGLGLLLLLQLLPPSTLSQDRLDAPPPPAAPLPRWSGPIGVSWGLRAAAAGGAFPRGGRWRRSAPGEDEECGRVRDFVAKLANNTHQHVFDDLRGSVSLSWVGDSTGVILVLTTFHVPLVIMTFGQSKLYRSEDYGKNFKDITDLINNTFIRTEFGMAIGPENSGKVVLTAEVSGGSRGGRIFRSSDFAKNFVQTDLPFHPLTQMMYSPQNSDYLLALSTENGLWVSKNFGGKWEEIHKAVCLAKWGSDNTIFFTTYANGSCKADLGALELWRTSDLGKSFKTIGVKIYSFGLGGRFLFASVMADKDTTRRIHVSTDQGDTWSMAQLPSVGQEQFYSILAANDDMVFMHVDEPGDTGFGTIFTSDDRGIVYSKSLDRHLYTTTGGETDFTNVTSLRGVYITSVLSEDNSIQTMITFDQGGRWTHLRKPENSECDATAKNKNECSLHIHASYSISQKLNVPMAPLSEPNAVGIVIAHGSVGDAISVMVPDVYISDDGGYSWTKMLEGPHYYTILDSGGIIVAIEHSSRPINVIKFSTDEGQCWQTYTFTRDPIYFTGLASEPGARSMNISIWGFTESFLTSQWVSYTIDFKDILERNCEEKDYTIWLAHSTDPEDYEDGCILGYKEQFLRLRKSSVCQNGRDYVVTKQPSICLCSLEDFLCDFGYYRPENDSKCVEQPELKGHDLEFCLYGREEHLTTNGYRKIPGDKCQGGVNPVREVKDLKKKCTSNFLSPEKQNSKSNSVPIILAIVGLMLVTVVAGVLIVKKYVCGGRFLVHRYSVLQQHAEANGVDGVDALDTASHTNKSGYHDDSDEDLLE

[1] = Dissociation constant, pKa of the compound in 29 to 54% methanol; type: physicochemical
MDR1 = assay: Permeability in MDCK cells expressing human MDR1 at 0.5 uM after 150 mins by LC-MS/MS analysis; type: ADME, cell-based, Canis lupus familiaris; details: dog, read-out: permeability
Sortilin (Homo sapiens) = Sortilin (Homo sapiens) (UniProt Q99523); assay: Displacement of [3H]-neurotensin from human His6-tagged sortilin at 500 uM pretreated for 30 mins followed by [3H]-neurotensin addition after 6 hrs measured for 360 secs by SPA relative to control

| IC50 (Sortilin) [µM] | Imax (Sortilin (Homo sapiens)) | Structure (SMILES) | also measured |
| --- | --- | --- | --- |
| 31.6 | – | CC(C)CC1=NOC(=O)C1 | – |
| 63.1 | – | CC(C)CCN1CC(=O)N=N1 | pKa [1]: 7; Papp at 2.5 h, 0.5 µM (MDR1): 2.9 ×10⁻⁶ cm/s |
| 39.8 | – | Cc1cccc(C(=O)NC2C(=O)N=NN2CCC(C)C)n1 (stereo not drawn) | – |
| – | 50% | O=C1CN(c2ccccc2)N=N1 | – |
| – | 35% | Oc1nc(-c2ccccc2)no1 | – |
| – | inactive | O=c1[nH]c(-c2ccc(Cl)cc2)no1 | – |
| – | – | Cn1nnc(O)c1CC(N)C(=O)O (stereo not drawn) | pKa [1]: 6.4 |
| 12.6 | – | CC(C)CCC1=NOC(=O)C1 | – |
| 63.1 | – | CC(C)CCN1N=NC(=O)C1C(=O)Nc1ccncc1 (stereo not drawn) | – |
| – | inactive | O=c1[nH]nc(-c2ccc(Cl)cc2)o1 | – |
| – | inactive | O=C1CN(c2cccc(Cl)c2)N=N1 | – |
| – | 54% | O=c1[nH]nc(Cc2ccccc2)o1 | – |
| – | 42% | O=c1[nH]c(-c2cccc(Cl)c2)no1 | – |
| 63.1 | – | CC(C)CCc1n[nH]c(=O)o1 | – |
| – | inactive | O=c1cc(-c2ccccc2)o[nH]1 | – |
| 39.8 | – | CNC(=O)C1C(=O)N=NN1CCC(C)C (stereo not drawn) | Papp at 2.5 h, 0.5 µM (MDR1): < 0.1 ×10⁻⁶ cm/s |
| 79.4 | – | O=C1CC(Cc2ccccc2)=NO1 | – |
| 12.6 | – | Cc1cccc(NC(=O)C2C(=O)N=NN2CCC(C)C)n1 (stereo not drawn) | – |
| – | inactive | O=C1CC(c2ccc(Cl)cc2)=NO1 | – |
| – | 30% | O=C1CC(c2cccc(Cl)c2)=NO1 | – |
| 158 | – | O=C1CC(c2ccccc2)=NO1 | – |

| IC50 (Sortilin) [µM] | Imax (Sortilin (Homo sapiens)) | Structure (SMILES) | also measured |
| --- | --- | --- | --- |
| – | – | Cc1cccc(NC(=O)c2ccc(C(F)(F)F)cc2C(=O)O)n1 | Papp at 2.5 h, 0.5 µM (MDR1): 0.3 ×10⁻⁶ cm/s |
| 3.98 | – | CC(C)CCN1N=NC(=O)C1C(=O)Nc1cccnc1 (stereo not drawn) | Papp at 2.5 h, 0.5 µM (MDR1): 2.9 ×10⁻⁶ cm/s |
| 31.6 | – | CC(=O)NC1C(=O)N=NN1CCC(C)C (stereo not drawn) | Papp at 2.5 h, 0.5 µM (MDR1): < 0.1 ×10⁻⁶ cm/s |
| 126 | – | O=c1[nH]nc(-c2ccccc2)o1 | – |
| 12.6 | – | CC(C)CCN1N=NC(=O)C1NC(=O)c1cccnc1 (stereo not drawn) | Papp at 2.5 h, 0.5 µM (MDR1): < 0.1 ×10⁻⁶ cm/s |
| 126 | – | CC(C)CCc1noc(=O)[nH]1 | – |
| – | 55% | O=c1[nH]c(Cc2ccccc2)no1 | – |
| – | inactive | O=C1CN(c2ccccc2Cl)N=N1 | – |
| 50.1 | – | CC(C)CCN1N=NC(=O)C1C(N)=O (stereo not drawn) | – |
| 20 | – | CC(C)CCN1N=NC(=O)C1NC(=O)c1ccncc1 (stereo not drawn) | – |
| – | 37% | O=C1CC(c2ccccc2Cl)=NO1 | – |
| – | 60% | CC(C)Cc1n[nH]c(=O)o1 | – |
| – | inactive | O=c1[nH]c(-c2ccccc2Cl)no1 | – |
| – | 63% | O=c1[nH]nc(-c2ccccc2Cl)o1 | – |
| – | < 20% | CC(C)CCN1N=NC(=O)C1C(C)C (stereo not drawn) | – |
| 79.4 | – | CC(C)CCN1N=NC(=O)C1C (stereo not drawn) | – |
| – | inactive | O=C1CN(c2ccc(Cl)cc2)N=N1 | – |
| – | inactive | O=c1[nH]nc(-c2cccc(Cl)c2)o1 | – |
| – | 69% | CC(C)CN1CC(=O)N=N1 | – |
| – | 57% | CCC1C(=O)N=NN1CCC(C)C (stereo not drawn) | – |
| 126 | – | O=C1CN(Cc2ccccc2)N=N1 | – |
